In patent EP2524918A1, “Imidazopyrazines derivates as kinase inhibitors” (Centro Nacional de Investigaciones Oncológicas (CNIO), priority 2011, dated 2012) one finds IC50 and EC50 data, which are given here for three compounds.

Test [1] has as its target T1, PI3K (p110α/p85α (Homo sapiens, UniProt P42336)).
T1 construct: purchased Carna Biosciences #07CBS-0402A
Description: PI3K activity assay (ADP Hunter Plus). The class given is biochemical. The settings on record: 50 µM ATP, 30 µM PIP2, 1 hour at 25°C; read-out: PI3Kα IC50. On the procedure: The kinase activity was measured by using the commercial ADP Hunter™ Plus assay available from DiscoveRx (#33-016), which is a homogeneous assay to measure the accumulation of ADP, a universal product of kinase activity. […] Reaction was carried out for 1 hour at 25°C. Reagent A and B were sequentially added to the wells and plates were incubated for 30 min at 37 °C. Fluorescence counts were read in a Victor instrument (Perkin Elmer) with the recommended settings (544 and 580 nm as excitation and emission wavelengths, respectively). Values were normalized against the control activity included for each enzyme (i.e., 100 % PI3 kinase activity, without compound). These values were plot against the inhibitor concentration and were fit to a sigmoid dose-response curve by using the Graphad software.

In test [2] the test system is Raji. Description: Antiproliferation MTT assay, Raji. In kind it is cell-based. The settings on record: Homo sapiens, Burkitt Lymphoma. On the procedure:
(§1) Cells were seeded at 10000-50000 cells/well in 96 plates for 16 h. On day two, nine serial 1:3 compound dilutions were made in DMSO in a 96 well plate. The compounds were added to duplicate wells in 96-well cell plates a using a FX BECKMAN robot (Beckman Coulter) and incubated at 37°C with CO2 atmosphere. After 3 days, relative numbers of viable cells were measured by MTT (Sigma) according to manufacturer's instruction and read on EndVision (Perkin Elmer). EC50 values were calculated using ActivityBase from IDBS. Drugs in combination assays were dosed starting at 4 x EC50 concentrations and continuing with serial dilutions 1:2. PI3K inhibitors and chemotherapeutic agents were added simultaneously.
(§2) An additional exemplary in vitro cell proliferation assay includes the following steps: • 1. An aliquot of 200 µl of cell culture containing optimal density (between 10^4 - 5x10^4 cells) (see Examples for cell lines and tumour type) in medium was deposited in each well of a 96-well flat bottom plates. • 2. Control wells were prepared containing medium without cells • 3. The compound was added to the experimental wells and incubated for 3 days. • 4. One quarter volume of MTT reagent with respect to the volume of cell culture medium present in each well was added and incubated 24h at 37°C with 5% CO2. • 5. One quarter volume of solubilisation buffer with respect to the volume of cell culture medium present in each well was added and incubated 24h at 37°C with 5% CO2. • 6. Formazan salt formed was recorded and reported in graphs as relative growth vs. cells treated only with dmso.

Test [3] deals with SKMel29. The test can be described thus: Antiproliferation MTT assay, SKMel29. The class given is cell-based. The settings on record: Melanoma. On the procedure:
as §1, §2

The test system of test [4] is Miapaca. The test can be described thus: Antiproliferation MTT assay, Miapaca. The class given is cell-based. The settings on record: Homo sapiens, MIA PaCa-2; Pancreas. On the procedure:
as §1, §2

The test system of test [5] is NCI H460. Description: Antiproliferation MTT assay, NCI H460. The settings on record: Homo sapiens, Lung Cancer. In kind it is cell-based. On the procedure:
as §1
(§3) An additional exemplary in vitro cell proliferation assay includes the following steps: • 1. An aliquot of 200 µl of cell culture containing optimal density (between 10^4 - 5x10^4 cells) (see Examples for cell lines and tumour type) in medium was deposited in each well of a 96-well flat bottom plates. • 2. Control wells were prepared containing medium without cells • 3. The compound was added to the experimental wells and incubated for 3 days. • 4. […] Formazan salt formed was recorded and reported in graphs as relative growth vs. cells treated only with dmso.

In test [6] the test system is NCI H1975. The test can be described thus: Antiproliferation MTT assay, NCI H1975. The following applies: Homo sapiens, Lung Cancer. In kind it is cell-based. On the procedure:
as §1, §2

Test [7] concerns BT474. The test can be described thus: Antiproliferation MTT assay, BT474. In kind it is cell-based. The following applies: Homo sapiens, BT-474; Breast cancer. Here is the method: as §1, §2
Test [8] deals with NCI H23. Description: Antiproliferation MTT assay, NCI H23. The class given is cell-based. The following applies: Homo sapiens, Lung Cancer. Here is the method: as §1, §2
For test [9], the system named is A549. The test can be described thus: Antiproliferation MTT assay, A549. The class given is cell-based. The settings on record: Homo sapiens, A549, Lung Cancer. Here is the method: as §1, §2
For test [10], the system named is MV4:11. Description: Antiproliferation assay, MV4:11. The class given is cell-based. The settings on record: Homo sapiens, AML, read-out: MMP MV4:11 IC50. On the procedure:
as §1, §2

The test system of test [11] is HDAC. The test can be described thus: HDAC enzymatic activity (HDAC-Glo I/II Screening System, HeLa cell nuclear extracts). In kind it is biochemical. The following applies: HeLa cell nuclear extract, 25°C for 30 minutes. Here is the method: HDAC inhibitory activity was evaluated using the HDAC-Glo™ I/II Screening System from Promega (G6430) using manufacturing recommendations. The system emploies HeLa cell nuclear extracts as a source of HDAC activities. The assay uses an acetylated, live-cell-permeant, luminogenic peptide substrate that can be deacetylated by HDAC activities. Substrate deacetylation is measured by a coupled protease reaction that cleaves the peptide from aminoluciferin, which is quantified in a reaction using recombinant Ultra-Glo™ firefly luciferase. Test compounds were serially diluted in dimethylsulphoside (DMSO) and added to HeLa cell nuclear extract in the presence of the acetylated luminogenic peptide substrate and developer reagent. Reactions were incubated at 25°C for 30 minutes and luminescence was measured in the EnVision plate reader (Perkin Elmer). Data were analyzed using GraphPad Prism (v5.03) with a sigmoidal dose-response curve fitting for IC50 calculation.

For test [12], the system named is phospho-Akt1 (Ser473) protein. Description: PI3K cellular activity (Elisa assay), AKT phosphorylation in U2OS cells. In kind it is cell-based. The following applies: Homo sapiens, U20S cells, inhibition of phosphorylation of AKT, 3h treatment, read-out: AKT_P_U20S_ELISA_EC50. Here is the method: Activity is measured as endogenous levels of phospho-Akt1 (Ser473) protein. Osteosarcoma U2OS cells are plated in 96 Poly-D-Lysine coating tissue culture plates (18.000 cells/well). After the treatment with serial dilutions of the compound during 3h, the cells are fixed directly in the wells with 4% paraformaldehyde.
After fixing, individual wells go through the same series of steps used for a conventional immunoblot: including blocking with 5% BSA, incubation with 1/1000 of primary antibody-AKT ([…]) in PBS containing 5% BSA at 4°C overnight (Cell Signalling), washing and incubation with second antibody HRP-anti-mouse IgG for 1 h at RT (Amersham). After the addition of SuperSignal ELISA Femto maximum sensitivity chemiluminescent substrate (Pierce) the results are read using a luminescence plate reader (Victor).

Test [13] deals with MDAMB 231. The test can be described thus: Antiproliferation MTT assay, MDAMB 231. The class given is cell-based. The following applies: Homo sapiens, MDA-MB-231; Breast cancer. On the procedure: as §1, §2
Test [14] has as its system HT39. The test can be described thus: Antiproliferation MTT assay, HT39. The class given is cell-based. The settings on record: Colon Cancer. On the procedure:
as §1, §2

The subject of test [15] is U2OS. Description: Antiproliferation MTT assay, U2OS. The class given is cell-based. The settings on record: Homo sapiens, Osteosar coma. Here is the method: as §1, §2
The subject of test [16] is MCF7. The test can be described thus: Antiproliferation MTT assay, MCF7. The following applies: Homo sapiens, Breast cancer. In kind it is cell-based. Here is the method:
as §1, §3

The test system of test [17] is SKMEL19. Description: Antiproliferation MTT assay, SKMEL19. In kind it is cell-based. The settings on record: Homo sapiens, SK-MEL19, Melanoma. On the procedure: as §1, §2
Test [18] concerns SW620. The test can be described thus: Antiproliferation MTT assay, SW620. The settings on record: Homo sapiens, SW-620; Colon Cancer. In kind it is cell-based. Here is the method:
as §1, §3

The test system of test [19] is HCT 116p53 ++. The test can be described thus: Antiproliferation MTT assay, HCT 116. The class given is cell-based. The settings on record: Homo sapiens, HCT-116, Colon Cancer. On the procedure:
as §1, §2

Test [20] concerns COLO206. Description: Antiproliferation MTT assay, COLO206. The class given is cell-based. The following applies: Colon Cancer. On the procedure:
as §1, §2

Test [21] deals with phospho-Akt1 (Ser473) protein. The test can be described thus: PI3K cellular activity (Elisa assay), AKT phosphorylation in SKMEL cells. In kind it is cell-based. The settings on record: inhibition of phosphorylation of AKT, read-out: AKT_P_SKMEL_ELISA_EC50.
In test [22] the test system is PC3. The test can be described thus: Antiproliferation MTT assay, PC3. In kind it is cell-based. The settings on record: Homo sapiens, PC-3; Prostate. Here is the method: as §1, §3
Where [23] appears, read: first of two columns with the same head (c1).
[24] abbreviates: second of two columns with the same head (c2).
[25] abbreviates: first of two columns with the same head (c3).

T1 sequence (P42336 whole entry): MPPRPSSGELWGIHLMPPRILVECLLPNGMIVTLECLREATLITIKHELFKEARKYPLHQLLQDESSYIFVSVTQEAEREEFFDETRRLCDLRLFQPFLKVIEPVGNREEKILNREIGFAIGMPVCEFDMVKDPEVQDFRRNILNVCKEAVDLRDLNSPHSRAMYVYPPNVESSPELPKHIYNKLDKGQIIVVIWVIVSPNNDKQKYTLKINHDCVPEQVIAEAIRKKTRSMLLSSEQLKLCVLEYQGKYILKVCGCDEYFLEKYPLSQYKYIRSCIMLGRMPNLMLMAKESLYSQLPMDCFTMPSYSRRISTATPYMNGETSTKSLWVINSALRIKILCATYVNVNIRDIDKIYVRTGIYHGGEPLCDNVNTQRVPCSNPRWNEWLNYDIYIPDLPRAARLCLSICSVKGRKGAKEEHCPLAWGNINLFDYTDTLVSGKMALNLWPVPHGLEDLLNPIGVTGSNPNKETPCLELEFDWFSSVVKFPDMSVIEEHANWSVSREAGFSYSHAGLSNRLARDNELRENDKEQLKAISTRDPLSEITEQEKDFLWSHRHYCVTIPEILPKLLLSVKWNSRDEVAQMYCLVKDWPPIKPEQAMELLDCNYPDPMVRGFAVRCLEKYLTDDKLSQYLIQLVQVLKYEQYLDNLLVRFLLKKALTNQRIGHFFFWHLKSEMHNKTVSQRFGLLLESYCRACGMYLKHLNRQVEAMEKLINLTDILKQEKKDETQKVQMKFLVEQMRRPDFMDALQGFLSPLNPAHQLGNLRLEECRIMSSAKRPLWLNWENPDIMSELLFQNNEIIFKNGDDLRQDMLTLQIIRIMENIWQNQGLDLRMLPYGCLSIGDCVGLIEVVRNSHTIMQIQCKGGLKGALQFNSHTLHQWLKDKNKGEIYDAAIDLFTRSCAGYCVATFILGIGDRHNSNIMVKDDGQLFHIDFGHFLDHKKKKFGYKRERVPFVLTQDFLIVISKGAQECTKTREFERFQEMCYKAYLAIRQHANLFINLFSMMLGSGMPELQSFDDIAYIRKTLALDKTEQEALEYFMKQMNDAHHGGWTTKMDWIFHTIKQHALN
T1 sequence (P27986 whole entry partner): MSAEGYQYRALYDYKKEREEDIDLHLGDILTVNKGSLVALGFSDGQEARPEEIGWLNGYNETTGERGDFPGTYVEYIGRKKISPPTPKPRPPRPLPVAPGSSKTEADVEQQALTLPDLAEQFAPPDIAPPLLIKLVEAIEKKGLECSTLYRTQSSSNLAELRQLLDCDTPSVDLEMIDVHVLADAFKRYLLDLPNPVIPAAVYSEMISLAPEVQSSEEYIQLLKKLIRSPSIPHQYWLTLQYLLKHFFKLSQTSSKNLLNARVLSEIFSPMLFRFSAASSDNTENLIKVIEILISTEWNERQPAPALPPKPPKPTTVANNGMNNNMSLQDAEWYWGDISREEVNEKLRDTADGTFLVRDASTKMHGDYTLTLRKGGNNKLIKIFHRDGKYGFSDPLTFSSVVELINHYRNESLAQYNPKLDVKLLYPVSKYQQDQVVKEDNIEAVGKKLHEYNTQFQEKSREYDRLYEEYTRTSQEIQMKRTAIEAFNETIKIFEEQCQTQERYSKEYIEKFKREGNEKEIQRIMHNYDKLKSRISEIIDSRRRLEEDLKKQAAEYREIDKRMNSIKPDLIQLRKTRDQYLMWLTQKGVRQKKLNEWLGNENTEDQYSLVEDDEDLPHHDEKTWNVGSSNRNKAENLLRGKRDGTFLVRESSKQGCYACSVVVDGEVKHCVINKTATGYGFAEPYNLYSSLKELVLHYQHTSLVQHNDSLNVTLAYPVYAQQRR

As to `CN(Cc1cn2cc(-c3cnc(N)nc3)nc(N3CCOCC3)c2n1)c1ncc(C(=O)NO)cn1` [Final Compound 3], the IC50 came out at 0.0075 µM in [1]; 0.051 µM in test [2]; 0.016 µM in [3]; 0.15 µM in test [4]; 1.69 µM in [5]; 0.24 µM in test [6]. The IC50 worked out at 0.019 µM in test [7]; 2.04 µM in test [8]; 1.08 µM in test [9] (setting [23]); 0.99 µM in [9] (setting [24]); 0.04 µM in test [10]; 0.0106 µM in test [11]. The IC50 amounted to 0.18 µM in [13]; 0.58 µM in test [14]; 0.25 µM in [15]; 0.12 µM in test [16]; 0.1 µM in test [17] (setting [23]); 0.043 µM in test [17] (setting [24]). In addition, the IC50 is 0.4 µM in test [18], 0.24 µM in [19], 0.41 µM in test [19] (setting [25]) and 0.15 µM in [20]. Moreover, the EC50 in test [12] is 0.026 µM; in test [21] it was 1.94 µM.
On to `Nc1ncc(-c2cn3cc(CNc4ncc(C(=O)NO)cn4)nc3c(N3CCOCC3)n2)cn1` [Final Compound 1], for which the IC50 in test [1] worked out at 0.0057 µM; in test [2], 2.75 µM; in test [22], 5.76 µM; in test [3], 1.33 µM; in test [4] it was 4.32 µM; in [6], 14.4 µM. Moreover, the IC50 is 0.5 µM in [7]; 77.9 µM in test [8]; 50.8 µM in test [9] (setting [23]); 1.15 µM in test [10]; 0.0211 µM in [11]; 5.73 µM in [13]. For the same compound, the IC50 in test [14] amounted to 34.6 µM; in [15] it was 5.36 µM; in test [17] (setting [23]) it was 3.3 µM; in test [17] (setting [24]), 2.3 µM; in test [19], 7.77 µM; in [19] (setting [25]) it was 6.71 µM. In addition, the 50% inhibitory concentration (IC50) in test [20] amounted to 5.94 µM. For the same compound, in test [21], the EC50 was 0.33 µM.
Turning to `Nc1ncc(-c2cn3cc(CN4CCN(c5ncc(C(=O)NO)cn5)CC4)nc3c(N3CCOCC3)n2)cn1` [Final Compound 2], the IC50 in test [1] was 0.0032 µM; in test [2] it was 0.28 µM; in [22], 1.17 µM; in test [3], 0.016 µM; in test [4], 0.63 µM; in test [5] it was 2.39 µM. The IC50 in [6] worked out at 1.05 µM; in test [7] it was 0.094 µM; in test [8], 2.15 µM; in [9] (setting [23]), 3.53 µM; in test [9] (setting [24]) it was 1.32 µM; in test [10], 0.34 µM. The IC50 came out at 0.009 µM in test [11]; 0.56 µM in [13]; 1.21 µM in [14]; 2.11 µM in [15]; 0.54 µM in test [16]; 0.37 µM in test [17] (setting [23]). Also, the IC50 in [17] (setting [24]) is 0.07 µM; in [18], 1.34 µM; in test [19] it was 0.67 µM; in [19] (setting [25]) it was 1.16 µM; in test [20], 0.56 µM. Further, the results for the EC50 in [12] and in test [21] were 1.36 µM and 0.07 µM, respectively.
